Measurements published in patent US5599926.

Conditions: from C=CCOc1ccc(C[C@H](N)C(=O)NCc2cc(CSc3cc(SCc4cc(CNC(=O)[C@@H](N)Cc5ccc(OCC=C)cc5)cc(C(=O)Oc5c(F)c(F)c(F)c(F)c5F)c4)cc(SCc4cc(CNC(=O)[C@@H](N)Cc5ccc(OCC=C)cc5)cc(C(=O)Oc5c(F)c(F)c(F)c(F)c5F)c4)c3)cc(C(=O)Oc3c(F)c(F)c(F)c(F)c3F)c2)cc1; amide bond; N,N-diisopropylethylamine (pentafluorophenyl ester); THF; 2.3 mM; 25.0 °C; 45.0 h

## C=CCOc1ccc(C[C@@H]2NC(=O)c3cc4cc(c3)CSc3cc5cc(c3)SCc3cc(cc(c3)C(=O)N[C@@H](Cc3ccc(OCC=C)cc3)C(=O)NC4)CNC(=O)[C@H](Cc3ccc(OCC=C)cc3)NC(=O)c3cc(cc(c3)CS5)CNC2=O)cc1
  ring closure, yield of all isomers: 65%
